Results taken from patent US12049467B2 (The Johns Hopkins University, priority 2021, dated 2024).

Each compound was assayed against T1, GABAA (α3β2γ2) subtype (Homo sapiens, UniProt P18507+P34903) (assay: Automated patch-clamp (QPatch) modulation of GABA-activated currents in cells stably transfected with GABAA (α3β2γ2) channels). Conditions: stably transfected Ltk cells, 2.0 μM GABA (submaximal), whole-cell patch, holding potential −80 mV; Emax = upper asymptote of dose-response fit.
T1 construct: expressed in transfected cells
Type: cell-based
Procedure: Modulatory effects of the compounds of this disclosure were investigated using cells stably transfected with GABA-activated channels of the GABAA (α3β2γ2) subtype together with submaximal GABA concentrations. Expression of GABA receptor were induced by adding Dexamethasone to the cells for 24 to 48 h before experimentation. In general, cells were passaged at a confluence of about 80 to 90%. For electrophysiological measurements cells were harvested at a confluence of about 80 to 90% from sterile culture flasks containing culture complete medium. Cells were transferred as suspension in PBS to the QPatch 16X or QPatch HTX system to the centrifuge/washer directly. Cells were incubated at 37° C. in a humidified atmosphere with 5% CO2 (rel. humidity about 95%). The cells were continuously maintained in and passaged in sterile culture flasks containing a 1:1 mixture of Dulbecco's modified eagle medium and nutrient mixture D-MEM/F-12 (1×, liquid, with L-Glutamine), supplemented with 10% foetal bovine serum and 1.0% Penicillin/Streptomycin solution and neomycin. The 1× bath solution was made at least every 5 days out of a sterile lox bath solution, which had been prepared prior to the experimental start of the present study and stored at 1° C. to 9° C. The final bath solution included Sodium Chloride 137 mM, Potassium Chloride 4 mM, Calcium Chloride 1.8 mM, Magnesium Chloride 1 mM, HEPES 10 mM, D-Glucose 10 mM, pH (NaOH) 7.4. The 1× intracellular solution was thawed every day and includes Potassium Chloride 130 mM, Magnesium Chloride 1 mM, Mg-ATP 5 mM, HEPES 10 mM, EGTA 5 Mm, pH (KOH) 7.2. Automated patch-clamping: Cells were transferred as suspension in serum-free medium to the QPatch HTX system and kept in the cell storage tank during experiments. All solutions applied to cells including the intracellular solution were maintained at room temperature (19° C. to 30° C.). After formation of a Gigaohm seal between the patch electrodes and transfected individual Ltk cells were ruptured to assure electrical access to the cell interior (whole-cell patch-configuration). Inward currents were measured upon application of 2.0 μM GABA to patch-clamped cells for 4 s. During the entire experiment the cells were voltage-clamped at a holding potential of −80 mV. For the analysis of test items, GABAA receptors were stimulated by 2.0 μM GABA and test item combinations described below. Thirty-second prewash steps with test items was performed in between two agonist applications. The dose-response curve was fit with a sigmoidal three parameter equation current=Emax/1+10^((Log EC50−X)*H) where X is the compound concentration, Emax the upper asymptote, EC50 the concentration of test item at half maximal effect, and H is the Hill coefficient. SigmaPlot 11.0 was used for construction of curve.

T1 sequence (P34903 29-492): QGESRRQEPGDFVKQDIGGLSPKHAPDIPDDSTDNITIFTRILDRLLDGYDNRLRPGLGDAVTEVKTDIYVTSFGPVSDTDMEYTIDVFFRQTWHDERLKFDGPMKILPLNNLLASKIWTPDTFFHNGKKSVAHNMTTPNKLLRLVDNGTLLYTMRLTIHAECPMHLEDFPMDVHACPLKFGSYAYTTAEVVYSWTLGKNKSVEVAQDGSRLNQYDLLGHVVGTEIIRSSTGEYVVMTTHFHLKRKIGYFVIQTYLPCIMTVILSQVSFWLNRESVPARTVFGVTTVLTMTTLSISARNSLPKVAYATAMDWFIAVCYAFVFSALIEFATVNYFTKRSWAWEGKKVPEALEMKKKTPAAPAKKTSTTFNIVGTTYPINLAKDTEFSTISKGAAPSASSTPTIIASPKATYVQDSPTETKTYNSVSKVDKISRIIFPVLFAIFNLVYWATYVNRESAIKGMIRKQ
T1 sequence (P47870 25-512 partner limits assumed): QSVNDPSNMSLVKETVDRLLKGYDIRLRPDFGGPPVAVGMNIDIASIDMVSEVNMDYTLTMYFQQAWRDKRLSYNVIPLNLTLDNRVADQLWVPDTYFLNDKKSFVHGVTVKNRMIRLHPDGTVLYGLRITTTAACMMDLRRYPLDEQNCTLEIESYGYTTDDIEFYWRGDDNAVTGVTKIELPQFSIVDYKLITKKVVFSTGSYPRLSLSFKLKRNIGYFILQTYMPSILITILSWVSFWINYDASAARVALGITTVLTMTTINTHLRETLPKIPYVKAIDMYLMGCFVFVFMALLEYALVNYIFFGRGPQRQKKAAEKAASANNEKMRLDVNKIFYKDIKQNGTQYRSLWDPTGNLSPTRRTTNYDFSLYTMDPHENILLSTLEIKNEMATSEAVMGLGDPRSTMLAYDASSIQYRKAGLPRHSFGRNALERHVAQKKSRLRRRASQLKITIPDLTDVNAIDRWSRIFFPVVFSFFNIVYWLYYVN
T1 sequence (P18507 40-475): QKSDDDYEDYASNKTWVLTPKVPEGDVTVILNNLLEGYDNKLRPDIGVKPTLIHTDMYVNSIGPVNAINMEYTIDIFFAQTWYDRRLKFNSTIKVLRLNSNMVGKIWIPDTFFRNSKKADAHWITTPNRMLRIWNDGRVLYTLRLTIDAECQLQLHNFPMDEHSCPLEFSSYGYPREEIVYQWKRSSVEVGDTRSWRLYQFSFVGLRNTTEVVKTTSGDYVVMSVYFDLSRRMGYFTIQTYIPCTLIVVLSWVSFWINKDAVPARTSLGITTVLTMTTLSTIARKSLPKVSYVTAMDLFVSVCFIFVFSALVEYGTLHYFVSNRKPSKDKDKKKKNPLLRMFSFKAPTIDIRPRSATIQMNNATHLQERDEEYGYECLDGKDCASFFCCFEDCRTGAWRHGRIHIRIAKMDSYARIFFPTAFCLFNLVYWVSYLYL

Compared with `C[Si](C)(C)c1ccc2c(c1)C(c1ccccc1F)=NCc1cc(C(=O)O)nn1-2` [Example 8, 6-(2-fluorophenyl)-8-trimethylsilyl-4H-pyrazolo[1,5-a][1,4]benzodiazepine-2-carboxylic acid], `Cc1ccc2c(c1)C(c1ccccc1F)=NCc1cc(C(=O)O)nn1-2` [Example 4, 6-(2-fluorophenyl)-8-methyl-4H-pyrazolo[1,5-a][1,4]benzodiazepine-2-carboxylic acid] is higher in Emax: less than 50% for the first, greater than 100% for the second.

First: O=C(O)c1cc2n(n1)-c1ccc(Cl)cc1C(c1cccc(F)c1F)=NC2 [Example 16]
Second: O=C(O)c1cc2n(n1)-c1ccc(Cl)cc1C(c1c(F)cccc1F)=NC2 [Example 14, 8-chloro-6-(2,6-difluorophenyl)-4H-pyrazolo[1,5-a][1,4]benzodiazepine-2-carboxylic acid]
The Emax of the first is higher: greater than 100% for the first, 51 to 100% for the second.

`O=C(O)c1cc2n(n1)-c1ccc(Cl)cc1C(c1ccccc1)=NC2` [Example 29, 8-chloro-6-phenyl-4H-benzo[f]pyrazolo[1,5-a][1,4]diazepine-2-carboxylic acid] and `O=C(O)c1cc2n(n1)-c1ccc(Cl)cc1C(c1ccccc1Cl)=NC2` [Example 15, 8-chloro-6-(2-chlorophenyl)-4H-pyrazolo[1,5-a][1,4]benzodiazepine-2-carboxylic acid] cannot be ordered by Emax: greater than 100% for the first, greater than 100% for the second.

`O=C(O)c1cc2n(n1)-c1ccc(Br)cc1C(c1ccccc1F)=NC2` [Example 7, 8-bromo-6-(2-fluorophenyl)-4H-pyrazolo[1,5-a][1,4]benzodiazepine-2-carboxylic acid] and `O=C(O)c1cc2n(n1)-c1ccc(Cl)cc1C(c1ccccc1F)=NC2` [Example 1, 8-chloro-6-(2-fluorophenyl)-4H-pyrazolo[1,5-a][1,4]benzodiazepine-2-carboxylic acid] cannot be ordered by Emax: greater than 100% for the first, greater than 100% for the second.

`Cc1c(C(=O)O)nn2c1CN=C(c1ccccc1F)c1cc(Cl)ccc1-2` [Example 19, 12-Chloro-9-(2-fluorophenyl)-5-methyl-2,3,8-triazatricyclo[8.4.0.0^2,6]tetradeca-1(10),3,5,8,11,13-hexaene-4-carboxylic Acid] and `O=C(O)c1nn2c(c1Br)CN=C(c1ccccc1F)c1cc(Cl)ccc1-2` [Example 21, 3-bromo-8-chloro-6-(2-fluorophenyl)-4H-pyrazolo[1,5-a][1,4]benzodiazepine-2-carboxylic Acid] cannot be ordered by Emax: greater than 100% for the first, greater than 100% for the second.

`NC(=O)NCCNC(=O)c1cnn2c1CN=C(c1ccccc1F)c1cc(Cl)ccc1-2` [Example 26, 8-chloro-6-(2-fluorophenyl)-N-(2-ureidoethyl)-4H-pyrazolo[1,5-a][1,4]benzodiazepine-3-carboxamide] and `NS(=O)(=O)NCCNC(=O)c1cnn2c1CN=C(c1ccccc1F)c1cc(Cl)ccc1-2` [Example 28, 8-chloro-6-(2-fluorophenyl)-N-[2-(sulfamoylamino)ethyl]-4H-pyrazolo[1,5-a][1,4]benzodiazepine-3-carboxamide] cannot be ordered by Emax: greater than 100% for the first, greater than 100% for the second.

Compared with `O=C(O)c1cc2n(n1)-c1ccc(Cl)cc1C(c1ccccc1F)=NC2O` (centres unmarked) [Example 24, 8-chloro-6-(2-fluorophenyl)-4-hydroxy-4H-benzo[f]pyrazolo[1,5-a][1,4]diazepine-2-carboxylic Acid], `CC1N=C(c2ccccc2F)c2cc(Cl)ccc2-n2nc(C(=O)O)cc21` (centres unmarked) [Example 20, 12-Chloro-9-(2-fluorophenyl)-7-methyl-2,3,8-triazatricyclo[8.4.0.0^2,6]tetradeca-1(10),3,5,8,11,13-hexaene-4-carboxylic acid] is higher in Emax: less than 50% for the first, greater than 100% for the second.

`NS(=O)(=O)NCCNC(=O)c1cc2n(n1)-c1ccc(Cl)cc1C(c1ccccc1F)=NC2` [Example 27, 8-chloro-6-(2-fluorophenyl)-N-[2-(sulfamoylamino)ethyl]-4H-pyrazolo[1,5-a][1,4]benzodiazepine-2-carboxamide] and `NC(=O)NCCNC(=O)c1cc2n(n1)-c1ccc(Cl)cc1C(c1ccccc1F)=NC2` [Example 25, 8-chloro-6-(2-fluorophenyl)-N-(2-ureidoethyl)-4H-benzo[f]pyrazolo[1,5-a][1,4]diazepine-2-carboxamide] fall in the same range of Emax: 51 to 100% for the first, 51 to 100% for the second.

Compared with `O=C(O)c1nn2c(c1Cl)CN=C(c1ccccc1F)c1cc(Cl)ccc1-2` [Example 22, 3,8-dichloro-6-(2-fluorophenyl)-4H-pyrazolo[1,5-a][1,4]benzodiazepine-2-carboxylic acid], `O=C(O)c1cnn2c1CN=C(c1ccccc1F)c1cc(Cl)ccc1-2` [Example 17, 12-Chloro-9-(2-fluorophenyl)-2,3,8-triazatricyclo[8.4.0.0^2,6]tetradeca-1(10),3,5,8,11,13-hexaene-5-carboxylic Acid] is higher in Emax: 51 to 100% for the first, greater than 100% for the second.

`O=C(O)c1cc2n(n1)-c1ccc(OC(F)(F)F)cc1C(c1ccccc1F)=NC2` [Example 11, 6-(2-fluorophenyl)-8-(trifluoromethoxy)-4H-pyrazolo[1,5-a][1,4]benzodiazepine-2-carboxylic acid] and `O=C(O)c1cc2n(n1)-c1ccc(C(F)(F)F)cc1C(c1ccccc1F)=NC2` [Example 10, 6-(2-fluorophenyl)-8-(trifluoromethyl)-4H-pyrazolo[1,5-a][1,4]benzodiazepine-2-carboxylic acid] cannot be ordered by Emax: greater than 100% for the first, greater than 100% for the second.

First: O=C(O)c1cc2n(n1)-c1ccc(Cl)cc1C(c1ccccc1F)=[N+]([O-])C2 [Example 23, 8-chloro-6-(2-fluorophenyl)-5-oxido-4H-pyrazolo[1,5-a][1,4]benzodiazepin-5-ium-2-carboxylic Acid]
Second: O=C(O)c1cc2n(n1)-c1cc(Cl)ccc1C(c1ccccc1F)=NC2 [Example 12]
The Emax of the first is higher: greater than 100% for the first, less than 50% for the second.

Compared with `O=C(O)c1cc2n(n1)-c1ccccc1C(c1ccccc1F)=NC2` [Example 5, 6-(2-fluorophenyl)-4H-pyrazolo[1,5-a][1,4]benzodiazepine-2-carboxylic acid], `C#Cc1ccc2c(c1)C(c1ccccc1F)=NCc1cc(C(=O)O)nn1-2` [Example 2, 8-ethynyl-6-(2-fluorophenyl)-4H-pyrazolo[1,5-a][1,4]benzodiazepine-2-carboxylic acid] is higher in Emax: less than 50% for the first, greater than 100% for the second.

`O=C(O)c1cc2n(n1)-c1ccc(Cl)cc1C(c1ccccc1Br)=NC2` [Example 13, 6-(2-bromophenyl)-8-chloro-4H-pyrazolo[1,5-a][1,4]benzodiazepine-2-carboxylic acid] and `O=C(O)c1cc2n(n1)-c1ccc(C3CC3)cc1C(c1ccccc1F)=NC2` [Example 3, 8-cyclopropyl-6-(2-fluorophenyl)-4H-pyrazolo[1,5-a][1,4]benzodiazepine-2-carboxylic acid] cannot be ordered by Emax: greater than 100% for the first, greater than 100% for the second.

First: O=C(O)c1cc2n(n1)-c1ccc(-c3ccccc3)cc1C(c1ccccc1F)=NC2 [Example 6, 6-(2-fluorophenyl)-8-phenyl-4H-pyrazolo[1,5-a][1,4]benzodiazepine-2-carboxylic acid]
Second: O=C(O)c1cc2n(n1)-c1ccc(SC(F)(F)F)cc1C(c1ccccc1F)=NC2 [Example 9, 6-(2-fluorophenyl)-8-(trifluoromethylsulfanyl)-4H-pyrazolo[1,5-a][1,4]benzodiazepine-2-carboxylic acid]
The Emax of the first is lower: less than 50% for the first, greater than 100% for the second.

`Cc1ccc2c(c1)C(c1ccccc1F)=NCc1c(C(=O)O)cnn1-2` [Example 18, 6-(2-fluorophenyl)-8-methyl-4H-pyrazolo[1,5-a][1,4]benzodiazepine-3-carboxylic acid] was tested, and the Emax was greater than 100%.
